Our source for the IC50 values is patent publication US20210261512A1, “NOVEL COMPOUNDS” (INFLAZOME LIMITED, priority 2018, published 2021).

The structures appear in SMILES notation.

Assay [1] concerns the target T1, NLRP3 (Homo sapiens, UniProt Q96P20). The assay is described as follows: THP-1 cells pyroptosis assay. In kind it is cell-based. Also noted: Seed THP-1 cells (25,000 cells/well) containing 1.0 μg/ml LPS; host or cells: THP-1. To be noted: LPS 1.0 μg/ml, nigericin 5 μM, resazurin readout, 10 μM top dose (Example 2: top dose of 30 μM). In outline: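 Pyroptosis induced by 5 μM nigericin (1 h) in LPS-primed (1 μg/ml) THP-1 cells, 25,000/well in serum-free RPMI, after 3 h compound pre-treatment (8 points, 10 μM top unless stated). Surviving cells measured with 100 μM resazurin, Ex 560/Em 590; IC50 via variable-slope 4-parameter regression.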
On the technique in general: Resazurin is reduced to fluorescent resorufin, in cell work by metabolically active cells.

For assay [2], the target named is T1, NLRP3. The assay is described as follows: Human whole blood IL1β release assay. In kind it is cell-based. The following applies: LPS 1 μg/ml, nigericin 10 μM, IL-1β AlphaLisa, 10 μM top dose (Example 2: top dose of 30 μM), read-out: HWB IC50. As to the method: For systemic delivery, the ability to inhibit NLRP3 when the compounds are present within the bloodstream is of great importance. For this reason, the NLRP3 inhibitory activity of a number of compounds in human whole blood was investigated in accordance with the following protocol.
Human whole blood in sodium-heparin or lithium-heparin tubes was obtained from healthy donors from a volunteer donor panel. • 1. Plate out 80 μl of whole blood containing 1 μg/ml of LPS in 96-well, clear bottom cell culture plate (Corning #3585) • 2. Add 10 μl compound (8 points half-log dilution with 10 μM top dose, unless stated otherwise) or vehicle (DMSO 0.1% FAC) to the appropriate wells • 3. Incubate for 3 hrs at 37° C., 5% CO2 • 4. Add 10 μl nigericin (Sigma #N7143) (10 μM FAC) to all wells • 5. Incubate for 1 hr at 37° C., 5% CO2 • 6. At the end of the incubation period, spin plates at 300×g for 5 mins to pellet cells and remove 20 μl of supernatant and add to 96-well v-bottom plates for IL-1β analysis (note: these plates containing the supernatants can be stored at −80° C. to be analysed at a later date) • 7. IL-1β was measured according to the manufacturer protocol (Perkin Elmer-AlphaLisa IL-1 Kit AL220F-5000) • 8. IC50 data is fitted to a non-linear regression equation (log inhibitor vs response-variable slope 4-parameters)
In general terms: Alpha assays give light when donor and acceptor beads are brought close together.

T1 sequence (Q96P20 whole entry): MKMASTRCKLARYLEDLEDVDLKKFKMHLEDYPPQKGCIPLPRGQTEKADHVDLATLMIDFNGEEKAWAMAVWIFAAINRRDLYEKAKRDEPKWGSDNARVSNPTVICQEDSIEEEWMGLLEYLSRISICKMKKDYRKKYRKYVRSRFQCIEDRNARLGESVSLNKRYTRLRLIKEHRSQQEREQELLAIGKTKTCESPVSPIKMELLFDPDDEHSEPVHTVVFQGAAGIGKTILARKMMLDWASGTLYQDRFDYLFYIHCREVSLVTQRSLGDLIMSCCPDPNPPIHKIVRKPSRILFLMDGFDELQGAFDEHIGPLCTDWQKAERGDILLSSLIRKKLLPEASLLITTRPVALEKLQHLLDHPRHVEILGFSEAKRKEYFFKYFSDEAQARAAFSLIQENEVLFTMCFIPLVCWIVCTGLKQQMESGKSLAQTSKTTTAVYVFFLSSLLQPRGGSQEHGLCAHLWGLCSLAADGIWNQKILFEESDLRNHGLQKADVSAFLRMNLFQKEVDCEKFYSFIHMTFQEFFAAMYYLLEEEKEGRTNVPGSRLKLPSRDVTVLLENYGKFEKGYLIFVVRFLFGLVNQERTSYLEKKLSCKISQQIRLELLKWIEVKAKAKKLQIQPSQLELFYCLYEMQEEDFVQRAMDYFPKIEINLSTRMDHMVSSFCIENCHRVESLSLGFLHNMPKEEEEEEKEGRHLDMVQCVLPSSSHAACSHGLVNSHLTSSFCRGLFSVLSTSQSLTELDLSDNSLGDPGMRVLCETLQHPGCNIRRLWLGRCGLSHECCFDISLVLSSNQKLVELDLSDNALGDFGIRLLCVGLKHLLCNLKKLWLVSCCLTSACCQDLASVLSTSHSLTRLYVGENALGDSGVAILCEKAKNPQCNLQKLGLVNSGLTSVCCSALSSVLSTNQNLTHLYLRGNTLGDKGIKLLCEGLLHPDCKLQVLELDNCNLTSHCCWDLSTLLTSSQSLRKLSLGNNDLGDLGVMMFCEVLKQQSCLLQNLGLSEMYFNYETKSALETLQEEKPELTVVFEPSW

A word on the IC50: it is the concentration that inhibits the measured activity by half. With `O=S(=O)(NCCN1CCCC1)c1nnc(Nc2c3c(cc4c2CCC4)CCC3)[nH]1` [Example 108, 5-((1,2,3,5,6,7-hexahydro-s-indacen-4-yl)amino)-N-(2-(pyrrolidin-1-yl)ethyl)-4H-1,2,4-triazole-3-sulfonamide], the concentration for half-maximal inhibition (IC50) at NLRP3 [1] is at most 0.5 µM; at NLRP3 [2], at most 5 µM.

Take `CN(C)CC1CCN(S(=O)(=O)c2nnc(Oc3c4c(cc5c3CCC5)CCC4)[nH]2)C1` (stereo not shown) [Example 286, 1-(1-((5-((1,2,3,5,6,7-hexahydro-s-indacen-4-yl)oxy)-4H-1,2,4-triazol-3-yl)sulfonyl)pyrrolidin-3-yl)-N,N-dimethylmethanamine]: the IC50 is at most 5 µM against NLRP3 [1] and at most 10 µM on NLRP3 [2].

`CC(C)(O)C1CCN(S(=O)(=O)c2nnc(Nc3c4c(cc5c3CCC5)CCC4)[nH]2)CC1` [Example 293, 2-(1-((5-((1,2,3,5,6,7-hexahydro-s-indacen-4-yl)amino)-4H-1,2,4-triazol-3-yl)sulfonyl)piperidin-4-yl)propan-2-ol]: the results for the IC50 at NLRP3 [1] and at NLRP3 [2] were at most 0.5 µM and at most 10 µM, respectively.

On to `NS(=O)(=O)c1ccc(S(=O)(=O)c2nnc(Nc3c4c(cc5c3CCC5)CCC4)[nH]2)cc1` [Example 366, 4-((5-((1,2,3,5,6,7-hexahydro-s-indacen-4-yl)amino)-4H-1,2,4-triazol-3-yl)sulfonyl)benzenesulfonamide], for which the 50% inhibitory concentration (IC50) was at most 0.5 µM at NLRP3 [1] and at most 10 µM on NLRP3 [2].

Take `Cc1cc2c(c(Nc3nnc(S(=O)(=O)c4ccccc4)[nH]3)c1-c1ccnc(OC3CCN(C)CC3)c1)CCC2` [Example 318, N-(6-methyl-5-(2-((1-methylpiperidin-4-yl)oxy)pyridin-4-yl)-2,3-dihydro-1H-inden-4-yl)-5-(phenylsulfonyl)-4H-1,2,4-triazol-3-amine]: the IC50 on NLRP3 [1] is at most 0.5 µM; on NLRP3 [2], at most 5 µM.

In the case of `COc1cc(-c2cc(C#N)c3c(c2Nc2nnc(S(=O)(=O)c4ccccc4)[nH]2)CCC3)ccn1` [Example 192, 6-(2-methoxypyridin-4-yl)-7-((5-(phenylsulfonyl)-4H-1,2,4-triazol-3-yl)amino)-2,3-dihydro-1H-indene-4-carbonitrile], the IC50 against NLRP3 [1] is at most 1 µM; on NLRP3 [2] it was at most 5 µM.

As for `CC(O)Cn1ccc(S(=O)(=O)c2nnc(Nc3c4c(cc5c3CCC5)CCC4)[nH]2)n1` (stereo not shown) [Example 352, 1-(3-((5-((1,2,3,5,6,7-hexahydro-s-indacen-4-yl)amino)-4H-1,2,4-triazol-3-yl)sulfonyl)-1H-pyrazol-1-yl)propan-2-ol], the figures for the IC50 against NLRP3 [1] and at NLRP3 [2] were at most 0.5 µM and at most 10 µM, respectively.

For the compound `COc1cc(-c2cc(F)cc(C3CC3)c2Nc2nnc(S(=O)(=O)N3CCC(N(C)C)CC3)[nH]2)ccn1` [Example 301, 1-((5-((2-cyclopropyl-4-fluoro-6-(2-methoxypyridin-4-yl)phenyl)amino)-1H-1,2,4-triazol-3-yl)sulfonyl)-N,N-dimethylpiperidin-4-amine], the values for the IC50 at NLRP3 [1] and at NLRP3 [2] were at most 0.5 µM and at most 5 µM, respectively.

With `CN1CCCCC1CNS(=O)(=O)c1nnc(Nc2c3c(cc4c2CCC4)CCC3)[nH]1` (stereo not shown) [Example 141, 5-((1,2,3,5,6,7-hexahydro-s-indacen-4-yl)amino)-N-((1-methylpiperidin-2-yl)methyl)-4H-1,2,4-triazole-3-sulfonamide], the IC50 against NLRP3 [1] is at most 5 µM; on NLRP3 [2] it was at most 10 µM.

Turning to `O=S(=O)(NCC1CCCCN1)c1nnc(Nc2c3c(cc4c2CCC4)CCC3)[nH]1` (stereo not shown) [Example 132, 5-((1,2,3,5,6,7-hexahydro-s-indacen-4-yl)amino)-N-(piperidin-2-ylmethyl)-4H-1,2,4-triazole-3-sulfonamide], the half-inhibitory concentration (IC50) on NLRP3 [1] was at most 0.5 µM; on NLRP3 [2], at most 10 µM.

On to `CNCC1CN(S(=O)(=O)c2nnc(Nc3c4c(cc5c3CCC5)CCC4)[nH]2)C1` [Example 279, N-(1,2,3,5,6,7-hexahydro-s-indacen-4-yl)-5-((3-((methylamino)methyl)azetidin-1-yl)sulfonyl)-4H-1,2,4-triazol-3-amine], for which the IC50 at NLRP3 [1] and at NLRP3 [2] was at most 0.5 µM throughout.

With `COc1cc(-c2ccc3c(c2Nc2nnc(S(=O)(=O)N4CCC5(CCCN5C)CC4)[nH]2)CCO3)ccn1` [Example 211, N-(5-(2-methoxypyridin-4-yl)-2,3-dihydrobenzofuran-4-yl)-5-((1-methyl-1,8-diazaspiro[4.5]decan-8-yl)sulfonyl)-4H-1,2,4-triazol-3-amine], the IC50 at NLRP3 [1] was at most 0.5 µM; at NLRP3 [2] it was at most 5 µM.

Take `CN1CC2(CC1=O)CN(S(=O)(=O)c1nnc(Nc3c4c(cc5c3CCC5)CCC4)[nH]1)C2` [Example 331, 2-((5-((1,2,3,5,6,7-hexahydro-s-indacen-4-yl)amino)-4H-1,2,4-triazol-3-yl)sulfonyl)-6-methyl-2,6-diazaspiro[3.4]octan-7-one]: the half-maximal inhibitory concentration (IC50) on NLRP3 [1] and at NLRP3 [2] was at most 5 µM each time.

With `O=S(=O)(c1nnc(Nc2c3c(cc4c2CCC4)CCC3)[nH]1)N1CC[C@H](C2(O)CC2)C1` [Example 345, (S)-1-(1-((5-((1,2,3,5,6,7-hexahydro-s-indacen-4-yl)amino)-4H-1,2,4-triazol-3-yl)sulfonyl)pyrrolidin-3-yl)cyclopropanol], the values for the concentration for half-maximal inhibition (IC50) against NLRP3 [1] and on NLRP3 [2] were at most 1 µM and at most 10 µM, respectively.

In the case of `CC(CNS(=O)(=O)c1nnc(Nc2c3c(cc4c2CCC4)CCC3)[nH]1)N(C)C` (stereo not shown) [Example 290, N-(2-(dimethylamino)propyl)-5-((1,2,3,5,6,7-hexahydro-s-indacen-4-yl)amino)-4H-1,2,4-triazole-3-sulfonamide], the IC50 against NLRP3 [1] and at NLRP3 [2] was at most 5 µM in each case.

Turning to `CN(C)C(=O)C1CCN(S(=O)(=O)c2nnc(Nc3c4c(cc5c3CCC5)CCC4)[nH]2)C1` (stereo not shown) [Example 139, 1-((5-((1,2,3,5,6,7-hexahydro-s-indacen-4-yl)amino)-4H-1,2,4-triazol-3-yl)sulfonyl)-N,N-dimethylpyrrolidine-3-carboxamide], the results for the IC50 against NLRP3 [1] and at NLRP3 [2] were at most 1 µM and at most 10 µM, respectively.

On to `CC(C)(O)[C@@H]1CCN(S(=O)(=O)c2nnc(Nc3c4c(cc5c3CCC5)CCC4)[nH]2)C1` [Example 330, (R)-2-(1-((5-((1,2,3,5,6,7-hexahydro-s-indacen-4-yl)amino)-4H-1,2,4-triazol-3-yl)sulfonyl)pyrrolidin-3-yl)propan-2-ol], for which the half-inhibitory concentration (IC50) is at most 1 µM on NLRP3 [1] and at most 10 µM on NLRP3 [2].

As to `CCN(CC)CCS(=O)(=O)c1nnc(Nc2c3c(cc4c2CCC4)CCC3)[nH]1` [Example 46, 5-((2-(diethylamino)ethyl)sulfonyl)-N-(1,2,3,5,6,7-hexahydro-s-indacen-4-yl)-4H-1,2,4-triazol-3-amine], the results for the half-maximal inhibitory concentration (IC50) against NLRP3 [1] and on NLRP3 [2] were at most 1 µM and at most 5 µM, respectively.

For `COc1cc(-c2cc(F)cc(C(C)C)c2Nc2nnc(S(=O)(=O)N3CCC4(CCCN4C)CC3)[nH]2)ccn1` [Example 260, N-(4-fluoro-2-isopropyl-6-(2-methoxypyridin-4-yl)phenyl)-5-((1-methyl-1,8-diazaspiro[4.5]decan-8-yl)sulfonyl)-4H-1,2,4-triazol-3-amine], the IC50 against NLRP3 [1] was at most 0.5 µM; on NLRP3 [2] it was at most 5 µM.

For `CC(C)c1cc(F)cc(C(C)C)c1Nc1nnc(S(=O)(=O)N2CC3(CCN(C)C3)C2)[nH]1` [Example 242, N-(4-fluoro-2,6-diisopropylphenyl)-5-((6-methyl-2,6-diazaspiro[3.4]octan-2-yl)sulfonyl)-4H-1,2,4-triazol-3-amine], the concentration for half-maximal inhibition (IC50) on NLRP3 [1] and on NLRP3 [2] was at most 0.5 µM each time.

`[2H]C([2H])([2H])Oc1cc(-c2ccc3c(c2Nc2nnc(S(=O)(=O)N4CC5(CCN(C)C5)C4)[nH]2)CCO3)ccn1` [Example 195, N-(5-(2-(methoxy-d)pyridin-4-yl)-2,3-dihydrobenzofuran-4-yl)-5-((6-methyl-2,6-diazaspiro[3-4]octan-2-yl)sulfonyl)-4H-1,2,4-triazol-3-amine]: the IC50 on NLRP3 [1] and on NLRP3 [2] was at most 0.5 µM throughout.

On to `O=S(=O)(Cc1ccccc1)c1nnc(Nc2c3c(cc4c2CCC4)CCC3)[nH]1` [Example 2, 5-(benzylsulfonyl)-N-(1,2,3,5,6,7-hexahydro-s-indacen-4-yl)-4H-1,2,4-triazol-3-amine], for which the IC50 is at most 10 µM against NLRP3 [1] and at most 30 µM at NLRP3 [2].

On to `CC(C)c1cc(F)cc(C(C)C)c1Nc1nc(S(=O)(=O)N2CCC(CN(C)C)C2)n[nH]1` (stereo not shown) [Example 241, 3-((3-((dimethylamino)methyl)pyrrolidin-1-yl)sulfonyl)-N-(4-fluoro-2,6-diisopropylphenyl)-1H-1,2,4-triazol-5-amine], for which the 50% inhibitory concentration (IC50) at NLRP3 [1] is at most 0.5 µM; at NLRP3 [2], at most 1 µM.
